The target of one series is glucocorticoid receptor (Homo sapiens, UniProt P04150). As to conditions: HepG2 cells; cited from earlier work.
The test system of the next series is pituitary tumors. The following applies: cited from earlier work.
The nature of series [1]: Clinical studies of relacorilant in patients with endogenous hypercortisolism. The class given is in vivo, human. From the text: The following examples show the results of relacorilant administration to patients suffering from pituitary tumors.
In another series the test system is estrogen receptor. As to conditions: cited from earlier work.
The test system of another series is pituitary macroadenoma. Description: MRI measurement of pituitary tumor size in Cushing's Disease patients given relacorilant. The class given is in vivo, human. From the text: The relacorilant administration disclosed herein can reduce tumor size and confer beneficial clinical outcomes to patients having a pituitary tumor. Methods for measuring the size of a pituitary tumor are well-known to skilled artisans in the field. For example, magnetic resonance imaging (MRI) and other imaging methods may be used to detect tumor shrinkage. Other methods for determining the effect of cancer therapy on tumor size are also known in the art, e.g., as described in the Response Evaluation Criteria in Solid Tumors (“RECIST”) guidelines, discussed, for example, in Chalian et al., Radiographics 31(7):2093-2105 (2011), and available at “protocolDevelopment/docs/recist_guideline.pdf” of the website “ctep.cancer.gov”.
Measuring tumor size is typically achieved by imaging-based techniques, including magnetic resonance imaging (MRI), computed tomography (CT), positron-emission tomography (PET) and other techniques. For example, MRI, CT, and PET scans can provide accurate and reliable anatomic information not only about tumor shrinkage or growth but also progression of disease by identifying either growth in existing lesions or the development of new lesions or tumor metastasis. Tumor size, including a reduction in tumor size, may be determined by measuring a linear dimension of a tumor (measuring may be accomplished, for example, by counting pixels on a digital image, by measuring a distance on a printed image or from an image projected onto a screen); by measuring two different linear dimensions of a tumor; by measuring three, or more, different linear dimensions of a tumor; by calculating (or estimating, based on measurements) a cross-sectional area of a tumor; by calculating (or estimating, based on measurements) a volume of a tumor; or by other means known in the art. […]

The next series concerns the target androgen receptor (Homo sapiens, UniProt P10275). As to conditions: cited from earlier work.
The target in series [2] is T1, mineralocorticoid receptor (Homo sapiens, UniProt P08235).
T1 sequence (P08235 1-984): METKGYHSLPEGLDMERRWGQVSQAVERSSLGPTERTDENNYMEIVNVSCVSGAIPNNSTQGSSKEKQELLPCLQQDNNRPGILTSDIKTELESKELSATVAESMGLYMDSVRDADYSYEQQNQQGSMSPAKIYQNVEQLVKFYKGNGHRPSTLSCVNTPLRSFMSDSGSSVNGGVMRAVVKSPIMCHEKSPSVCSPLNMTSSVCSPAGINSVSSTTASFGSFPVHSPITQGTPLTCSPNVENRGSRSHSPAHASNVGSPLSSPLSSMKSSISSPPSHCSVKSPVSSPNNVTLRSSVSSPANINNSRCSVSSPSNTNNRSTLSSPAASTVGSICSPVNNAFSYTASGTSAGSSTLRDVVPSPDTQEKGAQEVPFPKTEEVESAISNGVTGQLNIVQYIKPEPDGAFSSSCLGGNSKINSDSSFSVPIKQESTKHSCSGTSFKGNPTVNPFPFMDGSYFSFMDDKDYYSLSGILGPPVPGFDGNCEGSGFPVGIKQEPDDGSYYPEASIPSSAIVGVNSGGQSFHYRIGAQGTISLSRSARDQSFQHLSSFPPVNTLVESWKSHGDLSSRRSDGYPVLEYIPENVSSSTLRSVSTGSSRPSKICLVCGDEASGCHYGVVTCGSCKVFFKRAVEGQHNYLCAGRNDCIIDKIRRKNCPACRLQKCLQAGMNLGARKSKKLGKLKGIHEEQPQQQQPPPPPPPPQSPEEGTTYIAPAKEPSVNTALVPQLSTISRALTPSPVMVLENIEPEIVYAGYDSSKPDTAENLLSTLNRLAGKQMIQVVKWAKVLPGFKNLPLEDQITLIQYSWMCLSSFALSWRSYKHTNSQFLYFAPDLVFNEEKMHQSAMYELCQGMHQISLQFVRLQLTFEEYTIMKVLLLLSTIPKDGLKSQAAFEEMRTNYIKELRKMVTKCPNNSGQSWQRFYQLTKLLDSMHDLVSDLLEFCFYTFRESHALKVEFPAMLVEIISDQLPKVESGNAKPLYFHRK
As to conditions: cited from earlier work.

The next series has as its target progesterone receptor (Homo sapiens, UniProt P06401). The following applies: cited from earlier work.

SMILES strings stand for the structures. Entries after “also recorded” stand apart in the source; their conditions may differ.

Sequence of progesterone receptor (P06401 whole entry, species assumed): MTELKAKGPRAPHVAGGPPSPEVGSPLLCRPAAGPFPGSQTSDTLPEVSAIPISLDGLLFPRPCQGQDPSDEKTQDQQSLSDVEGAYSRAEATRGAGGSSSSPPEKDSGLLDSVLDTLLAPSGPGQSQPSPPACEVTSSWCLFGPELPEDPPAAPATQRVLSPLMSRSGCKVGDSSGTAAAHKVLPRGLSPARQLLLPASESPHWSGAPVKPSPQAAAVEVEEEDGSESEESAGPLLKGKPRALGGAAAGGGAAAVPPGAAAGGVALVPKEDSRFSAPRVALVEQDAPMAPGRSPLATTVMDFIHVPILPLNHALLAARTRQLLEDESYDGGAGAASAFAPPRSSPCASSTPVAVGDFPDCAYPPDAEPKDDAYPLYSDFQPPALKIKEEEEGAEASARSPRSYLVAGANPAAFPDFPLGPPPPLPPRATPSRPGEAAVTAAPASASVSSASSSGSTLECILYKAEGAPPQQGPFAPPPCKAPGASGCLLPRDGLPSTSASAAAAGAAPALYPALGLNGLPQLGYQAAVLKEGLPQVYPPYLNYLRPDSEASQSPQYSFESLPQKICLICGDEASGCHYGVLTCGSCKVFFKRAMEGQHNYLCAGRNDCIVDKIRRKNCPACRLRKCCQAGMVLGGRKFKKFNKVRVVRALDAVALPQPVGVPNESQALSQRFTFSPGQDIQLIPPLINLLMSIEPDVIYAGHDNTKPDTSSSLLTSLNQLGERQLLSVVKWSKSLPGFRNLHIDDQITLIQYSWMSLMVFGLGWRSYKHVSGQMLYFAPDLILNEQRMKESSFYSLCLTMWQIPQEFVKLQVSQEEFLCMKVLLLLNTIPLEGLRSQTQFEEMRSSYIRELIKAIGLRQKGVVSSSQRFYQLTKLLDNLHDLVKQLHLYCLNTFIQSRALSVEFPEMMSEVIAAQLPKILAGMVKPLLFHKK
Sequence of androgen receptor (P10275 whole entry, species assumed): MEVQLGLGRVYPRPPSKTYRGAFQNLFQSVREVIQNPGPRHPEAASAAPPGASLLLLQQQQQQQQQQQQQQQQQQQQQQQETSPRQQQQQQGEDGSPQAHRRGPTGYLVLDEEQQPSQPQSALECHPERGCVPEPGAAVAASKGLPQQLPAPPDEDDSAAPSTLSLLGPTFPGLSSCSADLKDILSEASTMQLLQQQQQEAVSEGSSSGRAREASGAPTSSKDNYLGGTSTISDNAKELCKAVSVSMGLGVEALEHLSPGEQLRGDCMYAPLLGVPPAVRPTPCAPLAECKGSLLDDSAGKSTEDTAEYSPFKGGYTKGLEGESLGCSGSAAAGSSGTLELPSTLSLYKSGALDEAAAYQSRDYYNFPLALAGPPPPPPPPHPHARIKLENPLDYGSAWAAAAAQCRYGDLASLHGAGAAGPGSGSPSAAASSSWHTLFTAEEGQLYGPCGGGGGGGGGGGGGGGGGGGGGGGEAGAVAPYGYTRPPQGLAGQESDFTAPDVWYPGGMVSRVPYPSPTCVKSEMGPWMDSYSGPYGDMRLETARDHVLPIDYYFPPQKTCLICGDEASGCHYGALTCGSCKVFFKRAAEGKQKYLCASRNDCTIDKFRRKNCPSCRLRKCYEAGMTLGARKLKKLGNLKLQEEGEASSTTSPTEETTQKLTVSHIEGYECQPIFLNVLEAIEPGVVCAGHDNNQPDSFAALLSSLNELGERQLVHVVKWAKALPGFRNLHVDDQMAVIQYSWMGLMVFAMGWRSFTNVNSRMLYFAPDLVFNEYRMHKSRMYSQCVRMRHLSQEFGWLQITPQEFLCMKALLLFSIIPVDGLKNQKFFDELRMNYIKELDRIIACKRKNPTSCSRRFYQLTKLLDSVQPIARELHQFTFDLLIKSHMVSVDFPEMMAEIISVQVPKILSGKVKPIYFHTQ
Sequence of glucocorticoid receptor (P04150 whole entry): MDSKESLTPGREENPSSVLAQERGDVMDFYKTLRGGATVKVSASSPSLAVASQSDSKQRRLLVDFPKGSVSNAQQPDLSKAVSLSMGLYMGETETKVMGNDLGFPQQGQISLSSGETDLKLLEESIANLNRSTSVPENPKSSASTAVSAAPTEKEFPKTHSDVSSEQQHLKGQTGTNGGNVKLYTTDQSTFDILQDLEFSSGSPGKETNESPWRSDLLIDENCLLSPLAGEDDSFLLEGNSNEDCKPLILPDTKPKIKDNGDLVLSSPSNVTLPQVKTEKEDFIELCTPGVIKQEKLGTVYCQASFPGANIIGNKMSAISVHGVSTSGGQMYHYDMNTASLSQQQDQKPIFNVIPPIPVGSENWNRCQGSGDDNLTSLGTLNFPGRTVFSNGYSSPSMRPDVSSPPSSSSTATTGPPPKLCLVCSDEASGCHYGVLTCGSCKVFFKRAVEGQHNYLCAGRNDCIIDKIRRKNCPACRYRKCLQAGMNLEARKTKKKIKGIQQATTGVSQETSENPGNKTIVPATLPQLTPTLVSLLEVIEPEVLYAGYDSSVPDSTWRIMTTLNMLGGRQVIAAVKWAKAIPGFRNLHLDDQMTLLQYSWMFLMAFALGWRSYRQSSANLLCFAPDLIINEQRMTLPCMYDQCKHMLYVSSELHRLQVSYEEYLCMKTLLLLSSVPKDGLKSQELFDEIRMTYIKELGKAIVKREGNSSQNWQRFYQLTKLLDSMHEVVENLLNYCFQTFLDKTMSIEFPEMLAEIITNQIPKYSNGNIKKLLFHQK

For the molecule `CC#C[C@]1(O)CC[C@H]2[C@@H]3CCC4=CC(=O)CCC4=C3[C@@H](c3ccc(N(C)C)cc3)C[C@@]21C` [mifepristone], the “effect on tyrosine aminotransferase (TAT) activity” value on glucocorticoid receptor is “decreases”. Also, the “tumor regression (MRI)” value with pituitary tumors (17 Cushing's Disease patients with visible tumors (10 macroadenomas), mifepristone for 24 weeks) is given as “no regression”. The “MRI images of tumor over treatment” value in the series with pituitary tumors (17 patients, in one patient the tumor increased in size with 10 weeks of mifepristone) is recorded as “stable in all but one patient”.

As for `Cn1cc(S(=O)(=O)N2CCC3=Cc4c(cnn4-c4ccc(F)cc4)C[C@]3(C(=O)c3cc(C(F)(F)F)ccn3)C2)cn1` [relacorilant, (R)-(1-(4-fluorophenyl)-6-((1-methyl-1H-pyrazol-4-yl)sulfonyl)-4,4a,5,6,7,8-hexahydro-1H-pyrazolo[3,4-g]isoquinolin-4a-yl)(4-(trifluoromethyl)pyridin-2-yl)methanone], in series [1] (clinical studies), the tolerability entry is recorded as “well tolerated”. Further, in series [1] (patients with endogenous hypercortisolism), the “glycemic and hypertension control and other manifestations of cortisol excess” value is “significantly improved”. Further, the “effect on estrogen receptor” value in the series on estrogen receptor is listed as “does not significantly affect”. Besides, the tumor volume shrinkage in the series with pituitary macroadenoma (Example 2 patient, following three months of relacorilant administration) is approximately 40%. For the same molecule, in the series with pituitary macroadenoma (Example 2 patient, pre-treatment measure 14,300 mm^3), the “multiplication of the three post-treatment measurements (indication of tumor volume)” value was 8,778 mm^3. Moreover, the “effect on pituitary tumor size” value with pituitary macroadenoma (two Cushing's Disease patients (both macroadenomas), three months of daily relacorilant) is “significant pituitary tumor shrinkage; also recorded: shrunk; also recorded: effective to reduce the size of pituitary tumors”. In addition, the “effect on androgen receptor” value on androgen receptor is “does not significantly affect”. In addition, the “effect on mineralocorticoid receptor” value in series [2] is recorded as “does not significantly affect”. For the same molecule, at progesterone receptor, the “effect on progesterone receptor” value is reported as “does not significantly affect”.

The record behind these values is US12005055B2, “Methods for shrinking pituitary tumors” (Corcept Therapeutics Incorporated, priority 2018, dated 2024).
